The values that follow are results of earlier work, collected in patent US11033601B2, “Selective inhibition of V1b for treating fatty liver” (The Regents of the University of Colorado, priority 2017, dated 2021).

Molecules are shown by their SMILES.

The target in this data set is V2 receptors (Homo sapiens, UniProt P30518).
Chain of V2 receptors (P30518 whole entry): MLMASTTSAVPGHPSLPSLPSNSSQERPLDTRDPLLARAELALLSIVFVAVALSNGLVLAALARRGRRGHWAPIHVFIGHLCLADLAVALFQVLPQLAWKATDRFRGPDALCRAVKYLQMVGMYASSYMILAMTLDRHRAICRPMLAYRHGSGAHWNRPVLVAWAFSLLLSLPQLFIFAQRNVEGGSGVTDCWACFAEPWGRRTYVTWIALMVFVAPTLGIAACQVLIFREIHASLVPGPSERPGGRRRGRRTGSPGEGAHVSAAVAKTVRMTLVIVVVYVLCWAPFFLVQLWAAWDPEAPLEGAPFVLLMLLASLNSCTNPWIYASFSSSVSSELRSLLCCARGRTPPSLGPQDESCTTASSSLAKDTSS

`COc1ccc(S(=O)(=O)N2C(=O)[C@@](c3ccccc3OC)(N3C[C@H](O)C[C@H]3C(=O)N(C)C)c3cc(Cl)ccc32)c(OC)c1` [Nelivaptan]: the “effects on V2 receptors” value is given as “little effects”.
